Drawing on BindingDB's records for PubMed 2498315 (University of California San Diego, 1989), this text covers IC50 for three compounds.

Phospholipase A2, sequence (P04054 whole entry): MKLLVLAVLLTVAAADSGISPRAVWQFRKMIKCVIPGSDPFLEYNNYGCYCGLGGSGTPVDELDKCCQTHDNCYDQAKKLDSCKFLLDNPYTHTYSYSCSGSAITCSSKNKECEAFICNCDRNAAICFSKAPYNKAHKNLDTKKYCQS

The target in the assay is Phospholipase A2 (Homo sapiens, UniProt P04054). Put plainly: Phospholipase A2 Vesicle Assay. The conditions noted are these: pH 9; 40 °C. An excerpt:
Inhibition assay using phospholipase A2.
The term IC50 denotes the concentration that inhibits the measured activity by half. `O=C(CBr)c1ccc(Br)cc1` [2-bromo-1-(4-bromophenyl)ethan-1-one] showed a half-maximal inhibitory concentration (IC50) of 550 µM. `CCCCCCCCCCC/C=C/C(C)(C)/C=C/CCCC(=O)O` [7,7-dimethyl-5,8-eicosadienoic acid] registered an IC50 of 16 µM. Against the preceding compound, the IC50 is about 34-fold lower. The value for `CC(C)=CCC/C(C)=C/C/C(C=O)=C\CCC1=CC(=O)OC1O` (stereo not drawn) [Manoalogue] was 26 µM.
